Experimental data published in US20240115662A1, “METHODS OF TREATING HYPOGONADOTROPIC HYPOGONADISM AND COGNITION IMPAIRMENT FOLLOWING A TRAUMATIC BRAIN INJURY” (WISCONSIN ALUMNI RESEARCH FOUNDATION, priority 2021, published 2024).

Legend:
[1] = test system: male Sprague Dawley rats with craniectomy or controlled cortical impact (CCI) injury; experiment: Plasma steroid concentrations after craniectomy (Sham) or CCI injury, hCG with or without RU-486; type: in vivo, rat
Method: Male Sprague Dawley (SD) rats (n=58, 5-6-months old) were acquired from Harlan Laboratories Inc. (Madison, WI) and acclimated to the environment over 2 days. Rats were then weighed and handled for no less than 5 min each for 5 consecutive days and daily thereafter while being housed, fed and maintained on a 12-hour reverse light/dark cycle. The Institutional Animal Care and Use Committee (Animal Component of Research Protocol) at the William S. Middleton Veterans Administration Hospital approved the procedures used in this study and the research was conducted in an AAALAC-approved facility. Experimenters were blinded as to the identity of the animals throughout injections, blood collections, and body weight and hormone data analyses.
All surgical procedures were carried out under isoflurane gas anesthesia (5% for induction; 1.5-3.0% for maintenance, craniectomy ˜15-30 min duration; craniectomy+CCI injury ˜25-45 min duration). An anesthesia chamber was used for induction and a nose cone was used for maintenance.
Anesthetized rats were mounted in a Kopf stereotaxic device (Model 900; Tujunga, CA), where the animal's head was held in place by non-traumatic ear bars and a bite bar. Anesthesia was maintained by nose cone while the head was shaved and sterilized with 70% ethanol and Betadine™ (Purdue Products L.P., Stamford, CT) antiseptic solution. Throughout surgery anesthesia levels were monitored closely and were frequently adjusted as need, based on heart rate, respiration rate and oxygen saturation. A homeothermic blanket control unit (Harvard Apparatus, Holliston, MA) was used to monitor body temperature and to prevent hypothermia throughout surgery.
Under aseptic conditions, the cranium and its bony landmarks including bregma (β) and lambda (λ) were exposed by making a midline incision along the scalp into the skin and fascia covering the skull. A 6 mm diameter craniectomy was centered on the midline at 2.5 mm anterior to β. The cortical impact was made at 2.5 mm anterior to β over the midline of the medial frontal cortex with an Impact One™ Stereotaxic CCI instrument (Leica, Buffalo Grove, IL), using a 5 mm impactor (bit size), traveling at 2.25 m/s (velocity), extending 3 mm below the cortical surface (impact depth) for 100 ms (dwell time). Sham-injured groups received the same surgical procedures up to and including craniectomy but no CCI injury. After surgery, the rats were placed on a heating pad, monitored closely and upon awakening were tested 30 min later for righting reflex to assess any immediate effects of craniectomy or CCI injury on righting ability, and then returned to their home cages.
Baseline blood draws were collected from all animals. […] Pregnyl® is a highly purified pyrogen-free preparation obtained from the urine of pregnant females. Each vial contains 10,000 USP units of sterile dried powder with 5 mg monobasic sodium phosphate and 4.4 mg dibasic sodium phosphate that is diluted in solvent containing water, 0.56% sodium chloride and 0.9% benzyl alcohol (www.drugs.com/pro/pregnyl.html).
Rats were anesthetized (between 9:00 a.m.-12:00 noon) and their tails placed in a 200 mL beaker filled with warm water (≤44° C.) for 5 min. The tail was clean with 70% alcohol, the minimal amount of the tail tip snipped with a blade, and/or the wound reopened by removal of the scab for subsequent bleeds, and ˜1 mL of whole blood was collected directly into EDTA tubes at baseline (PID-10) and at PID, 1, 11, 19 and 29. […] Animals were injected with Lactate Ringers solution (5 mL) for fluid resuscitation. At the terminal bleed (day 29), blood also was collected via heart puncture. Collected blood was immediately centrifuged at 4,000 g for 10-20 min and the plasma aliquoted into Eppendorf tubes for storage at −80° C.

[2] = test system: hESC; experiment: hESC differentiation into neuroectoderm / neural precursor cells (nestin immunoblot, rosettes); type: cell-based, human
Method: FIG. 5A. hESC were grown in TESR1 media-Li in the presence of E2 (10 nM), P4 (2 μM) or E2 (10 nM)+P4 (2 μM) for 6 d and cell proliferation measured using the trypan blue assay. Results are expressed as mean±SEM, n=3 (*p<0.05, **p<0.005 compared to 6 d control). FIG. 5B. Equal amounts of protein from cell lysates of hESC treated for 9 d as described above were analyzed by immunoblot using a monoclonal antibody against nestin (clone 10C2; Chemicon, CA, USA). FIG. 5C. hESC were cultured for 4 days, enzymatically lifted and placed into EB media (containing serum) and rocked gently for an additional 4 days prior to being placed in one of two neural induction medias for an additional 11 days, where P4 was either absence or present. During this transition from EB to rosettes, colony structures treated with P4 also were treated with a Progesterone Receptor (PR) antagonist (RU-486; 20 μM) for 11 days. At 19 day, morphological observation and molecular analysis were performed. (i) Control structure, a minimum of three rosette structures were observed inside the cystic cavity (arrows). (ii) hESC structure in the absence of P4 (no rosettes) (iii) PR antagonist treated rosettes (no rosettes; RU-486, 20 μM). FIG. 5D. Equal amounts of protein from cell lysates of above structures were analyzed by immunoblot for nestin.
These structures are predominantly composed of NPCs (NSCs) akin to those that form the neural tube and can be further differentiated into various neural lineages. To understand which hormonal signals regulate the specification of hESC into NSCs, we closely examined the composition of the medias and supplements that had been developed by trial and error for the maintenance of hESC, and their differentiation first into embryoid bodies (EBs) and then into NPC. We identified P4 in the B27 supplement as being necessary and sufficient for the survival and differentiation of late embryonic neurons in vitro (E18 primary hippocampal/cortical/striatal neurons). […]

[3] = test system: human embryonic stem cells (hESC); experiment: hESC proliferation, trypan blue assay; type: cell-based; conditions: 6 d; E2 (10 nM), P4 (2 μM); compared to untreated control cells
Method: We therefore tested whether P4 was essential for the induction of NPC from hESC. hESC were treated with P4, E2 (which upregulates P4 receptor (PR) expression), or a combination of E2+P4.

Row | Compound | plasma P4 concentration ([1]; CCI injured animals with RU-486 pretreatment, PID 1) [ng/mL] | plasma T concentration ([1]; CCI injured animals with RU-486 pretreatment, PID 11) [ng/mL] | plasma T concentration ([1]; CCI injured animals with RU-486 pretreatment, PID 19) [ng/mL] | effect on circulating 11-DOC and corticosterone ([1]; CCI injured animals, RU486 pretreatment) | effect on corticosterone ([1]; Sham surgery, saline and hCG-treated animals, RU486 pretreatment (except PID 19 in Sham+hCG)) | circulating 11-DOC ([1]; Sham+hCG rats with RU486 pretreatment (40 mg/kg i.p.), PID 1) [ng/mL] | plasma P4 concentration ([1]; Sham+hCG with RU486 pretreatment, PID 29) [ng/mL] | effect on 11-DOC ([1]; Sham+saline with RU486 pretreatment) | nestin (immunoblot) in PR-antagonist treated structures ([2]; RU-486 20 μM) | neuroectodermal rosette formation ([2]; RU-486 20 μM for 11 days, in presence of P4) | decrease in rate of hESC proliferation [3] [%] | nestin expression (immunoblot) ([2]; hESC treated for 9 d, E2 (10 nM), P4 (2 μM))
1 | 11β-[p-(Dimethylamino)phenyl]-17α-(1-propynyl)estra-4,9-dien-17β-ol-3-one [RU-486] | 40.9 ± 10.0 | 4.5 ± 1.5 | 3.1 ± 1.1 | no significant effects | prevented Sham surgery-induced decreases in corticosterone through PID 29 | 282.4 ± 28.0 | 8.5 ± 4.5 | preventing the Sham+saline treatment-induced decrease in 11-DOC through PID29 | absence of nestin | No rosettes were detected |  | 
2 | C[C@]12CC[C@@H]3c4ccc(O)cc4CC[C@H]3[C@@H]1CC[C@@H]2O [E2, estradiol] |  |  |  |  |  |  |  |  |  |  | 16 | 
3 | CC(=O)[C@H]1CC[C@H]2[C@@H]3CCC4=CC(=O)CC[C@]4(C)[C@H]3CC[C@]12C [P4, progesterone] |  |  |  |  |  |  |  |  |  |  | 29 | increased the neuroectodermal marker nestin
